Laboratory results published in article PMC8141534 (The Journal of Biological Chemistry, 2021).
Ends that are not written are not given here.

How the values were obtained:
[1] = molecular target: P167L Rho (Escherichia coli, UniProt P0AG30, P167L); test: biochemical; format: binding
[2] = system: E. coli Rho; format: biochemical, Escherichia coli
[3] = system: Mycobacterium smegmatis mc^2155; format: cell-based
[4] = system: E. coli MG1655; format: cell-based, Escherichia coli; conditions: MG1655, pNL150, IPTG induction (100 μM), LB, 37 °C, 6 h; three independent colonies
[5] = system: Rho proteins from pathogenic bacteria; format: biochemical; conditions: 35 μM peptide 33, 50 nM Rho, E. coli RNAP stalled EC, trpt′
[6] = molecular target: WT Rho (Escherichia coli, UniProt P0AG30); format: biochemical
[7] = system: E. coli Rho; test: single round in vitro Rho-dependent transcription termination, T7A1-trpt′ template; format: biochemical, Escherichia coli
[8] = system: MG1655 gene expression; format: cell-based, Escherichia coli; conditions: qRT-PCR, relative to empty vector
[9] = pH 5.5
[10] = system: Rho-dependent termination (galEP3 reporter); test: in vivo Rho-dependent termination, galEP3 reporter, MacConkey-galactose plates; format: cell-based, Escherichia coli; conditions: MC4100 galEP3, MacConkey-galactose plates, overexpression
[11] = system: isolated Rho–NTD monomer; test: interaction with isolated Rho-NTD monomer; format: binding, Escherichia coli; conditions: data not shown
[12] = system: Mycobacterium bovis BCG; format: cell-based
[13] = system: Rho mutants, R144E, R146E, and E148R; format: cell-based, Escherichia coli; conditions: 0 and 100 μM IPTG
[14] = molecular target: E134K Rho (Escherichia coli, UniProt P0AG30, E134K); format: biochemical; conditions: E134K Rho + peptide; λTR1 RNA; exponential decay fit; two to three measurements
[15] = system: E. coli Rho; test: Rho-mediated RNA release from stalled (roadblocked) elongation complex; format: biochemical, Escherichia coli; conditions: for inhibition of Rho-induced RNA release from stalled EC (in words): Fig. 3E; for inhibition of Rho-induced RNA release from stalled EC (in words) / Frac. of RNA released (%): Fig. S4B
[16] = system: Rho-dependent termination (trpt′ and trac terminators, lacZ reporter); format: cell-based, Escherichia coli; conditions: Fig. 3
[17] = system: E134K Rho mutant; format: cell-based, Escherichia coli; conditions: IPTG induction
[18] = CD spectrometry; format: physicochemical; conditions: 10 mM 2-(N-morpholino)ethanesulfonic acid pH 5.5, 190 to 270 nm, 25 °C
[19] = system: Rho mutants, R66G and Y80C; format: cell-based, Escherichia coli; conditions: 50 μM IPTG
[20] = system: Rho; set-up: method as in 2 sources, one per row (each row's own in cited_ref): ref [23] = [23]; PMID 8466900; doi:10.1021/bi00065a007; 23 Zwiefka A. Kohn H. Widger W.R. Transcription termination factor rho: The site of Bicyclomycin inhibition in Escherichia coli Biochemistry 32 1993 3564 3570 8466900 10.1021/bi00065a007 ||| ref [24], [25], [26] = [24]; PMID 17565995; doi:10.1074/jbc.M702010200; 24 Gutiérrez P. Kozlov G. Gabrielli L. Elias D. Osborne M.J. Gallouzi I.E. Gehring K. Solution structure of YaeO, a rho-specific inhibitor of transcription termination J. Biol. Chem. 282 2007 23348 23 || [25]; PMID 21673658; doi:10.1038/emboj.2011.192; 25 Rabhi M. Espéli O. Schwartz A. Cayrol B. Rahmouni A.R. Arluison V. Boudvillain M. The Sm-like RNA chaperone Hfq mediates transcription antitermination at Rho-dependent terminators EMBO J. 30 2011 2 || [26]; PMID 31628950; doi:10.1016/j.jmb.2019.09.019; 26 Pal K. Yadav M. Jain S. Ghosh B. Sen R. Sen U. Vibrio cholerae YaeO is a structural homologue of RNA chaperone Hfq that inhibits rho-dependent transcription termination by dissociating its hexameri; conditions: cited from earlier work; for Rho antagonism (in words): ref [24], [25], [26]
[21] = molecular target: T1, P167L Rho (E. coli, UniProt P0AG30 1-419, P167L); test: pull-down; His-tagged peptides (30 μg peptide 16, 20 μg peptide 33) or His-tagged WT Psu (15 μg) bound to Ni-NTA beads at 4 °C for 12 to 16 h in 100 mM NaH2PO4 pH 8.0, 100 mM NaCl, 10 mM imidazole, 1 mM PMSF; 5 μg non-His-tagged P167L Rho added with 1 mM ATP, 37 °C, 20 min; wash 50 mM imidazole, elution 500 mM imidazole; SDS-Tricine PAGE; conditions: both partners purified
T1 construct: also called Rho P167L; non-His-tagged P167L Rho

[22] = ITC, 1 μM Rho P167L, 50 μM peptide, 1 mM ATP, pH 8.0, 25 °C, average of three experiments ± SD, Fig. 4B
[23] = Rho + NusG-CTD (5 μM) + ATP, average of three experiments ± SD, Fig. 6A
[24] = Rho + Poly dC34 (10 μM) + ATP, average of three experiments ± SD, Fig. 6A
[25] = Rho + PolyC (2 mM Poly(rC)), average of three experiments ± SD, Fig. 6A
[26] = Rho + ATP, average of three experiments ± SD, Fig. 6A
[27] = Rho bound to the single-stranded DNA and RNA

MHHHHHHTPAQFIFFRVKVRNWHTSVSVKAWLFWRMREDFQPDTD [peptide 33]
Kd [1, 22]: 16.6 ± 3 nM | Kd ([1]; P167L Rho, ITC): 17 nM | Kd [1, 23]: 26.5 ± 0.3 nM | Kd [1, 24]: 255 ± 100 nM | Kd [1, 25]: 164 ± 48 nM | n [1, 26]: 3.75 ± 0.2 | ΔG [1, 26]: -11 ± 0.1 kcal/mol | ΔH [1, 26]: -28 ± 0.9 kcal/mol | ΔS [1, 26]: -57 ± 3 cal/mol.K | n [1, 23]: 3.1 ± 0.1 | ΔG [1, 23]: -10.3 ± 0.02 kcal/mol | ΔH [1, 23]: -26 ± 3 kcal/mol | ΔS [1, 23]: -52 ± 10 cal/mol.K | n [1, 24]: 1.9 ± 0.3 | ΔG [1, 24]: -9.1 ± 0.3 kcal/mol | ΔH [1, 24]: -23.7 ± 4 kcal/mol | ΔS [1, 24]: -49.00 ± 13 cal/mol.K | n [1, 25]: 2.9 ± 0.1 | ΔG [1, 25]: -9.3 ± 0.2 kcal/mol | ΔH [1, 25]: -27.1 ± 3.5 kcal/mol | ΔS [1, 25]: -59.6 ± 12.3 cal/mol.K | binding stoichiometry (in words) [1, 27]: also reduced | thermodynamic parameters (in words) [1, 27]: not changed significantly | affinity for Rho (in words) ([1]; in the presence of NusG CTD): not affected significantly | reduction of affinity for Rho ([1]; in the presence of polyC): 10 fold | reduction of affinity for Rho ([1]; in the presence of polydC34): 15 fold | inhibition of ATPase activity of E. coli Rho (in words) [2]: more efficient than peptide 16 in inhibiting this Rho function | growth phenotype upon streaking (in words) [3]: very sick phenotype | transformants obtained (in words) [3]: fewer colonies than those obtained from the transformation with the empty vector | growth defect upon expression (in words) [4]: severe growth defects | inhibition of RNA release by pathogenic Rho proteins (in words) [5]: could inhibit the termination process by all the different Rho proteins | reduction of rate of ATP hydrolysis ([6]; WT Rho): ~5.5 fold | λ (average rate of ATP hydrolysis) ([6]; WT Rho + peptide, λTR1 RNA, exponential decay fit, two to three measurements): 0.009 min⁻¹ | effect on transcription when Rho was absent (in words) ([7]; no Rho): did not have any effect on transcription when Rho was absent | upregulation of tested genes (in words) [8]: higher level of upregulation of these genes than that when its CTDΔ8 derivative was expressed | solubility at mildly acidic pH (in words) [9]: properly soluble at a mildly acidic pH | colour of colonies, galEP3 reporter (in words) [10]: appearance of red colonies | interaction with isolated Rho-NTD monomer (in words) [11]: unable to interact with an isolated Rho–NTD monomer | growth phenotype upon streaking (in words) [12]: very sick phenotype | peptide-induced growth defect with Rho mutants (in words) [13]: could not prevent the peptide-induced growth defect | λ (average rate of ATP hydrolysis) [14]: 0.0155 min⁻¹ | inhibition of Rho-induced RNA release from stalled EC (in words) [15]: significantly inhibited | inhibition of Rho-induced RNA release from stalled EC (in words) ([15]; listed as Peptide 33): exerted its action at a lower concentration than peptide 16 | concentration for maximal effects ([15]; in general, varied between different lots): ≥ 50 µM | Frac. of RNA released (%) ([15]; peptide 25, Rho 50 nM): 31± 0.4% | Frac. of RNA released (%) ([15]; peptide 35, Rho 50 nM): 16 ± 0.4% | Frac. of RNA released (%) ([15]; peptide 50, Rho 50 nM): 13 ± 0.4% | in vivo antitermination / Rho inhibitory properties (in words) [16]: strong in vivo antitermination of Rho-dependent termination | effect on growth of E134K Rho compared with WT (in words) [17]: less severe effect on the growth of the E134K Rho than its WT counterpart | secondary structure by CD (in words) [18]: predominantly α-helical | effect on growth of Rho mutants compared with WT (in words) [19]: very severe

Hfq: PBS-binding Rho antagonist
Rho antagonism (in words) [20]: PBS-binding Rho antagonists

C=C1CCO[C@]2([C@@H](O)[C@@](C)(O)CO)NC(=O)[C@@]1(O)NC2=O [bicyclomycin]
Rho inhibition (in words) ([20]; ref [23]): directly binds near the ATP-binding sites and inhibits Rho functions

MHHHHHHTPAQGMIFSVKVRTGITSVSVKAWLFWRMREDFQPDTD [peptide 16]
Kd [1, 22]: 214 ± 113 nM | binding affinity and stoichiometry (in words) ([1]; compared with peptide 33, ITC): binds with much weaker affinity and with significantly reduced stoichiometry | growth defect upon expression (in words) [4]: severe growth defects | effect in transcription termination assay with Rho (in words) ([7]; data not shown): much less | solubility at mildly acidic pH (in words) [9]: properly soluble at a mildly acidic pH | colour of colonies, galEP3 reporter (in words) [10]: appearance of red colonies | peptide-induced growth defect with Rho mutants (in words) [13]: could not prevent the peptide-induced growth defect | inhibition of Rho-induced RNA release from stalled EC (in words) [15]: significantly inhibited | inhibition of Rho-induced RNA release from stalled EC (in words) ([15]; listed as Peptide 16): could efficiently inhibit the RNA release of Rho only when stalled EC was used | Frac. of RNA released (%) ([15]; peptide 25, Rho 50 nM): 38 ± 2% | Frac. of RNA released (%) ([15]; peptide 50, Rho 50 nM): 22 ± 0.8% | Frac. of RNA released (%) ([15]; peptide 100, Rho 50 nM): 13 ± 2% | in vivo antitermination / Rho inhibitory properties (in words) [16]: strong in vivo antitermination of Rho-dependent termination | secondary structure by CD (in words) [18]: predominantly α-helical

B1: His-tagged WT Psu (polarity suppression protein, bacteriophage P4 capsid protein) (natural protein)
chain: MESTALQQAFDTCQNNKAAWLQRKNELAAAEQEYLRLLSGEGRNVSRLDELRNIIEVRKWQVNQAAGRYIRSHEAVQHISIRDRLNDFMQQHGTALAAALAPELMGYSELTAIARNCAIQRATDALREALLSWLAKGEKINYSAQDSDILTTIGFRPDVASVDDSREKFTPAQNMIFSRKSAQLASRQSV
binding result [21]: binds

B2: YaeO: PBS-binding Rho antagonist (protein, UniProt P0AFW8 1-84, looked up)
Protein rof: MNDTYQPINCDDYDNLELACQHHLMLTLELKDGEKLQAKASDLVSRKNVEYLVVEAAGETRELRLDKITSFSHPEIGTVVVSES
Rho antagonism (in words) [20]: PBS-binding Rho antagonists
